Results published in ChEMBL document CHEMBL1909046, “DrugMatrix in vitro pharmacology data”.

Key:
[1] = molecular target: Matrix metalloproteinase-9 (Homo sapiens, UniProt P14780); assay: biochemical; format: cell-based;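 also: inhibition of isolated MMP-9 enzyme activity toward a synthetic peptide substrate, from the DrugMatrix protease screening panel; in other assays of this panel Not Active means under 50% inhibition at 10 µM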
[2] = DRUGMATRIX: Glutamate, NMDA, Agonism radioligand binding (ligand: [3H] CGP-39653); format: cell membranes, Rattus norvegicus, Wistar, Cerebral cortex, Membrane; settings: Not Active = under 50% inhibition at 10 µM
[3] = DRUGMATRIX: Serotonin (5-Hydroxytryptamine) 5-HT3 radioligand binding (ligand: [3H] GR-65630); format: cell membranes, Membrane; settings: hek293; Not Active = under 50% inhibition at 10 µM
[4] = DRUGMATRIX: Calcium Channel Type L, Benzothiazepine radioligand binding (ligand: [3H] Diltiazem); format: cell membranes, Rattus norvegicus, Wistar, Brain, Membrane; settings: Not Active = under 50% inhibition at 10 µM
B2 bradykinin receptor = molecular target: T1, B2 bradykinin receptor (Homo sapiens, UniProt P30411); format: cell membranes, Membrane; settings: chem-1; also: in other assays of this panel Not Active means under 50% inhibition at 10 µM
T1 sequence (P30411 whole entry): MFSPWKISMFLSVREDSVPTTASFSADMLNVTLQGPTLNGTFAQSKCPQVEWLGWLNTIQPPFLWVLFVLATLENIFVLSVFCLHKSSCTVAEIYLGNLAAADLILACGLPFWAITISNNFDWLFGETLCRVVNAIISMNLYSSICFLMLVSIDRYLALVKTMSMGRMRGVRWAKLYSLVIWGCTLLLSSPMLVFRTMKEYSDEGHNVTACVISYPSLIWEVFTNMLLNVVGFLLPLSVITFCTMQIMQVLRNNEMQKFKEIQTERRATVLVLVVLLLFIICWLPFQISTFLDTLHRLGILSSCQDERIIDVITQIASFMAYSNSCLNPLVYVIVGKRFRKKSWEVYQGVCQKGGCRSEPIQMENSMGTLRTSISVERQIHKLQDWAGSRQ

[5] = molecular target: Tyrosine-protein kinase Lck (Homo sapiens, UniProt P06239); assay: DRUGMATRIX: Protein Tyrosine Kinase, LCK enzyme inhibition (substrate: Poly(Glu:Tyr)); format: cell-based, Insect cells; settings: Not Active = under 50% inhibition at 10 µM
[6] = DRUGMATRIX: Sodium/nucleoside co-transporter radioligand binding (ligand: nitrobenzylthioinosine); format: cell membranes, Cavia porcellus, Dunkin-Hartley, Cerebral cortex, Membrane; settings: Not Active = under 50% inhibition at 10 µM

Sequence of Matrix metalloproteinase-9 (P14780 whole entry): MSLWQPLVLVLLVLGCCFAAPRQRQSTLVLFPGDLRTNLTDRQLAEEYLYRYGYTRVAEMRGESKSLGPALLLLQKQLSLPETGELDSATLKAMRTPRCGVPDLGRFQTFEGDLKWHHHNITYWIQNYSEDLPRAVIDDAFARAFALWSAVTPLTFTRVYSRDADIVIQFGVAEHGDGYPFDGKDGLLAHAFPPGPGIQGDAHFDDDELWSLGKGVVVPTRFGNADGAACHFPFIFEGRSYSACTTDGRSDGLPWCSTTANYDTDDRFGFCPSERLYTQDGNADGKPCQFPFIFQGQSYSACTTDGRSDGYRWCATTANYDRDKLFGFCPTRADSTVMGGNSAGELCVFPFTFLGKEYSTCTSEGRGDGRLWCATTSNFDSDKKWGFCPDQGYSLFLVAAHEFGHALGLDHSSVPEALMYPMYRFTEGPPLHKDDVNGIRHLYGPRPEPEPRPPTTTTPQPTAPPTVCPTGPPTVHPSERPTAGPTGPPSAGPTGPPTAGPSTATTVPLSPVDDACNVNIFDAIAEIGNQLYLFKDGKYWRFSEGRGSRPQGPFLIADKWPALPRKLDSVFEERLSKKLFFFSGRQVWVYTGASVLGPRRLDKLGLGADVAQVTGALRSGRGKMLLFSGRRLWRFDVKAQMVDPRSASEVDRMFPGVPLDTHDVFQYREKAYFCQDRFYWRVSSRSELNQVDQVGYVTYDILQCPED
Sequence of Tyrosine-protein kinase Lck (P06239 whole entry): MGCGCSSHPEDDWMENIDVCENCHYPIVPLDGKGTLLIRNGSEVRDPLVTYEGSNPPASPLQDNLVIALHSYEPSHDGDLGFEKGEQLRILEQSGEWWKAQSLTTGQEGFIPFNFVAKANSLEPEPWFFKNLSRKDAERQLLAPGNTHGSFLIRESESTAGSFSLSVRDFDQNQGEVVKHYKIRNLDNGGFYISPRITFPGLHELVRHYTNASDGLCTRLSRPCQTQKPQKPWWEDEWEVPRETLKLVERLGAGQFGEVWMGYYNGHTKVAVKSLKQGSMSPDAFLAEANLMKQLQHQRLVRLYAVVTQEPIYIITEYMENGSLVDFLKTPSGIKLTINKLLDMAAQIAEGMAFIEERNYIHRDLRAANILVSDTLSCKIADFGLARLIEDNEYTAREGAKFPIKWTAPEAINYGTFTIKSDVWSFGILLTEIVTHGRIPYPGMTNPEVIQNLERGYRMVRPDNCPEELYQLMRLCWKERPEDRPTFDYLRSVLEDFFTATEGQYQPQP

SMILES | IC50 [1] | IC50 [2] | Ki [2] | IC50 [3] | Ki [3] | IC50 [4] | Ki [4] | IC50 (B2 bradykinin receptor) | IC50 ([5]; insect cells) | IC50 [6] | Ki [6] | IC50 ([4]; read-out: IC50) [µM] | Ki ([4]; read-out: Ki) [µM] | IC50 ([5]; read-out: IC50) [µM]
CN(C(=O)CCCOc1ccc2[nH]c(=O)ccc2c1)C1CCCCC1 [CILOSTAMIDE] | Not Active | Not Active | Not Active | Not Active | Not Active | Not Active | Not Active | Not Active | Not Active | Not Active | Not Active |  |  | 
CC(C)(Oc1ccc(C2CC2(Cl)Cl)cc1)C(=O)O (stereo not drawn) [CIPROFIBRATE] | Not Active | Not Active | Not Active | Not Active | Not Active | Not Active | Not Active | Not Active | Not Active | Not Active | Not Active |  |  | 
Nc1nc(Cl)nc2c1ncn2[C@H]1C[C@H](O)[C@@H](CO)O1 [CLADRIBINE] | Not Active | Not Active | Not Active | Not Active | Not Active | Not Active | Not Active | Not Active | Not Active | Not Active | Not Active |  |  | 
CC[C@H]1OC(=O)[C@H](C)[C@@H](O[C@H]2C[C@@](C)(OC)[C@@H](O)[C@H](C)O2)[C@H](C)[C@@H](O[C@@H]2O[C@H](C)C[C@H](N(C)C)[C@H]2O)[C@](C)(OC)C[C@@H](C)C(=O)[C@H](C)[C@@H](O)[C@]1(C)O [CLARITHROMYCIN] | Not Active | Not Active | Not Active | Not Active | Not Active | Not Active | Not Active | Not Active | Not Active | Not Active | Not Active |  |  | 
CCC[C@@H]1C[C@@H](C(=O)N[C@@H]([C@H]2O[C@H](SC)[C@H](O)[C@@H](O)[C@H]2O)[C@H](C)Cl)N(C)C1 [CLINDAMYCIN] | Not Active | Not Active | Not Active | Not Active | Not Active | Not Active | Not Active | Not Active | Not Active | Not Active | Not Active |  |  | 
O=C(O)c1cc(=O)c2c(OCC(O)COc3cccc4oc(C(=O)O)cc(=O)c34)cccc2o1 [CROMOLYN] | Not Active | Not Active | Not Active | Not Active | Not Active | Not Active | Not Active | Not Active | Not Active | Not Active | Not Active |  |  | 
O=P1(N(CCCl)CCCl)NCCCO1 (stereo not drawn) [CYCLOPHOSPHAMIDE ANHYDROUS] | Not Active | Not Active | Not Active | Not Active | Not Active | Not Active | Not Active | Not Active | Not Active | Not Active | Not Active |  |  | 
CC(=O)O[C@]1(C(C)=O)CC[C@H]2[C@@H]3C=C(Cl)C4=CC(=O)[C@@H]5C[C@@H]5[C@]4(C)[C@H]3CC[C@@]21C [CYPROTERONE ACETATE] | Not Active | Not Active | Not Active | Not Active | Not Active | Not Active | Not Active | Not Active | Not Active | Not Active | Not Active |  |  | 
Nc1nc(N)nc(NC2CC2)n1 [CYROMAZINE] | Not Active | Not Active | Not Active | Not Active | Not Active | Not Active | Not Active | Not Active | Not Active | Not Active | Not Active |  |  | 
C#C[C@]1(O)CC[C@H]2[C@@H]3CCC4=Cc5oncc5C[C@]4(C)[C@H]3CC[C@@]21C [DANAZOL] | Not Active | Not Active | Not Active | Not Active | Not Active |  |  | Not Active | Not Active | Not Active | Not Active | 14.6 | 13 | 
CCN[C@@H](C)Cc1cccc(C(F)(F)F)c1 [DEXFENFLURAMINE] | Not Active | Not Active | Not Active | Not Active | Not Active | Not Active | Not Active | Not Active | Not Active | Not Active | Not Active |  |  | 
C[C@H](C(=O)O)c1cccc(C(=O)c2ccccc2)c1 [DEXKETOPROFEN] | Not Active | Not Active | Not Active | Not Active | Not Active | Not Active | Not Active | Not Active | Not Active | Not Active | Not Active |  |  | 
CN1C(=O)CN=C(c2ccccc2)c2cc(Cl)ccc21 [DIAZEPAM] | Not Active | Not Active | Not Active | Not Active | Not Active | Not Active | Not Active | Not Active | Not Active | Not Active | Not Active |  |  | 
CN1C[C@H](C(=O)N[C@]2(C)O[C@@]3(O)[C@@H]4CCCN4C(=O)[C@H](Cc4ccccc4)N3C2=O)C[C@@H]2c3cccc4[nH]cc(c34)C[C@H]21 [DIHYDROERGOTAMINE] | Not Active | Not Active | Not Active | Not Active | Not Active | Not Active | Not Active | Not Active | Not Active | Not Active | Not Active |  |  | 
Cc1c(N(C)CS(=O)(=O)[O-])c(=O)n(-c2ccccc2)n1C.[Na+] [DIPYRONE SODIUM] | Not Active | Not Active | Not Active | Not Active | Not Active | Not Active | Not Active | Not Active | Not Active | Not Active | Not Active |  |  | 
CC(CCc1ccc(O)cc1)NCCc1ccc(O)c(O)c1 (stereo not drawn) [DOBUTAMINE] | Not Active | Not Active | Not Active | Not Active | Not Active | Not Active | Not Active | Not Active |  | Not Active | Not Active |  |  | 5.52
CCn1cc(C(=O)O)c(=O)c2cc(F)c(N3CCNCC3)nc21 [ENOXACIN] | Not Active | Not Active | Not Active | Not Active | Not Active | Not Active | Not Active | Not Active | Not Active | Not Active | Not Active |  |  | 
CCC(=O)O[C@H]1[C@H](O[C@@H]2[C@@H](C)[C@H](O[C@H]3C[C@@](C)(OC)[C@@H](O)[C@H](C)O3)[C@@H](C)C(=O)O[C@H](CC)[C@@](C)(O)[C@H](O)[C@@H](C)C(=O)[C@H](C)C[C@@]2(C)O)O[C@H](C)C[C@@H]1N(C)C [ERYTHROMYCIN PROPIONATE] | Not Active | Not Active | Not Active | Not Active | Not Active | Not Active | Not Active | Not Active | Not Active | Not Active | Not Active |  |  | 
C=C(CC)C(=O)c1ccc(OCC(=O)O)c(Cl)c1Cl [ETHACRYNIC ACID] | Not Active | Not Active | Not Active | Not Active | Not Active | Not Active | Not Active | Not Active | Not Active | Not Active | Not Active |  |  | 
C#C[C@]1(O)CC[C@H]2[C@@H]3CCc4cc(O)ccc4[C@H]3CC[C@@]21C [ETHINYL ESTRADIOL] | Not Active | Not Active | Not Active | Not Active | Not Active |  |  | Not Active | Not Active | Not Active | Not Active | 15.4 | 13.7 | 
OCCO [ETHYLENE GLYCOL] | Not Active | Not Active | Not Active | Not Active | Not Active | Not Active | Not Active | Not Active | Not Active | Not Active | Not Active |  |  | 
CC(=O)OCC(CCn1cnc2cnc(N)nc21)COC(C)=O [FAMCICLOVIR] | Not Active | Not Active | Not Active | Not Active | Not Active | Not Active | Not Active | Not Active | Not Active | Not Active | Not Active |  |  | 
O=C(O)Cc1ccc(-c2ccccc2)cc1 [FELBINAC] | Not Active | Not Active | Not Active | Not Active | Not Active | Not Active | Not Active | Not Active | Not Active | Not Active | Not Active |  |  | 
